Values after ≈ are worked out from the molar mass of the structure shown.
Key:
MSSA = assay: MIC by broth microdilution method; assay type: cell-based; settings: for MIC: Staphylococcus aureus, MRSA / MSSA, MSSA, broth microdilution, read-out: MIC Vs MRSA (μg/ml) MSSA
Fab I = settings: 1 μM compound
MRSA = assay: MIC by broth microdilution method; assay type: cell-based; settings: for MIC: Staphylococcus aureus, MRSA, broth microdilution, read-out: MIC Vs MRSA (μg/ml) MRSA
MRSE = assay: MIC by broth microdilution method; assay type: cell-based; settings: for MIC: Staphylococcus epidermidis, MRSA / MRSE, MRSE, broth microdilution, read-out: MIC Vs MRSA (μg/ml) MRSE
[1] = Metabolic stability study in mouse liver microsomes; assay type: in vitro ADME; settings: 1 μM, 37° C.
Protocol: The above selected compounds have protected mice from infection at ED50 doses. Metabolic Stability Study: In vitro metabolic stability of the compounds was done in mouse liver microsomes prepared in house as per standard protocol. Compounds were tested at 1 μM concentration. Compounds were incubated for 15 and 60 minutes at 37° C. with 100 rpm in shaker bath. After the incubation samples were analysed by LC/MS (API-4000). Respective control (Propranalol) was included in the study.

SMILES: CN1CC(=O)Nc2ncc(/C=C/C(=O)N3CC=C(Cc4cccs4)CC3)cc2C1 [Compound 93, (E)-4-methyl-7-(3-oxo-3-(4-(thiophen-2-ylmethyl)-5,6-dihydropyridin-1(2H)-yl)prop-1-en-1-yl)-4,5-dihydro-1H-pyrido[2,3-e][1,4]diazepin-2(3H)-one]
- MIC (MSSA): 0.5 µg/mL (≈ 1.22 µM)
- FAB-I inhibition %@1 μM (Fab I): 93%
- MIC (MRSA): 0.5 µg/mL (≈ 1.22 µM)
- MIC (MRSE): 1 µg/mL (≈ 2.45 µM)
- Percentage of compound remained after 15 min [1]: 16.1%
- Percentage of compound remained after 60 min [1]: 1.1%

SMILES: O=C1CCc2cc(/C=C/C(=O)N3CC=C(Cc4cccc(F)c4)CC3)cnc2N1 [Compound 65]
- MIC Vs MRSA (μg/ml) MSSA (MSSA): 0.25 µg/mL (≈ 0.639 µM)
- FAB-I inhibition %@1 μM (Fab I): 90%
- MIC Vs MRSA (μg/ml) MRSA (MRSA): 0.25 µg/mL (≈ 0.639 µM)
- MIC Vs MRSA (μg/ml) MRSE (MRSE): 0.5 µg/mL (≈ 1.28 µM)
- Percentage of compound remained after 15 min [1]: 90.6%
- Percentage of compound remained after 60 min [1]: 75.0%

SMILES: O=C(/C=C/c1cnc2c(c1)CN(CCN1CCOCC1)C(=O)N2)N1CC=C(Cc2cccs2)CC1 [Compound 90, (E)-3-(2-morpholinoethyl)-6-(3-oxo-3-(4-(thiophen-2-ylmethyl)-5,6-dihydropyridin-1(2H)-yl)prop-1-en-1-yl)-3,4-dihydro pyrido[2,3-d]pyrimidin-2(1H)-one]
- MIC (MSSA): > 128 µg/mL
- FAB-I inhibition %@1 μM (Fab I): 89%
- MIC (MRSA): > 128 µg/mL
- MIC (MRSE): > 128 µg/mL
- Percentage of compound remained after 15 min [1]: 32.4%
- Percentage of compound remained after 60 min [1]: 22.9%

SMILES: O=C1CCNc2cc(/C=C/C(=O)N3CC=C(Cc4cccs4)CC3)cnc2N1 [Compound 91, (E)-8-(3-oxo-3-(4-(thiophen-2-ylmethyl)-5,6-dihydropyridin-1(2H)-yl)prop-1-en-1-yl)-2,3-dihydro-1H-pyrido[2,3-b][1,4]diazepin-4(5H)-one]
- MIC (MSSA): 0.25 µg/mL (≈ 0.634 µM)
- FAB-I inhibition %@1 μM (Fab I): 93%
- MIC (MRSA): 0.5 µg/mL (≈ 1.27 µM)
- MIC (MRSE): 0.5 µg/mL (≈ 1.27 µM)
- Percentage of compound remained after 15 min [1]: 81.3%
- Percentage of compound remained after 60 min [1]: 79.3%
